Results on 7 compounds are retold here after patent publication US5179100A, “4,5-dihydropyrazolo[3,4-a]acridines” (Hoechst-Roussel Pharmaceuticals inc., priority 1992, dated 1993).

Counter-ions that a name gives are not always drawn.

The assay relates to 2-phenyl-1,4-benzoquinone-induced writhing in mice. Kind of assay: 2-phenyl-1,4-benzoquinone-induced writhing test in mice (PQW Activity), analgesia. The format is in vivo. The procedure:
Exptl. […] The tests were conducted at the subcutaneous dose of 20 mg/kg.
Background: Writhing tests count abdominal constrictions after an irritant is injected.

Consider `Nc1c2c(nc3ccccc13)CCc1cnn(-c3ccccc3)c1-2` [11-Amino-4,5-dihydro-1-phenyl-1H-pyrazolo[3,4-a]acridine], for which the “PQW Activity, % Inhibition” value (subcutaneous, 20 mg/kg) is recorded as 48%. Take `CN(C)CCn1cc2c(n1)-c1c(nc3ccccc3c1N)CC2` [11-Amino-4,5-dihydro-2-(2-dimethylaminoethyl)-2H-pyrazolo [3,4-a]acridine]: the “PQW Activity, % Inhibition” value (subcutaneous, 20 mg/kg) is recorded as 59%. Regarding `CCn1cc2c(n1)-c1c(nc3ccccc3c1N)CC2` [11-Amino-4,5-dihydro-2-ethyl-2H-pyrazolo[3,4-a]acridine], the “PQW Activity, % Inhibition” value (subcutaneous, 20 mg/kg) is 67%.

Take `Cn1cc2c(n1)-c1c(nc3ccccc3c1N)CC2` [11-Amino-4,5-dihydro-2-methyl-2H-pyrazolo[3,4-a]acridine]: the “PQW Activity, % Inhibition” value (subcutaneous, 20 mg/kg) turned out to be 54%. As to `Nc1c2c(nc3ccccc13)CCc1cn(CC(=O)O)nc1-2` [11-Amino-4,5-dihydro-2H-pyrazolo[3,4-a]acridine-2-acetic acid hydrochloride hemihydrate], where the note is “subcutaneous, 20 mg/kg”, the “PQW Activity, % Inhibition” value came out at 58%. Still for that read-out and setting: next, `N#CCn1cc2c(n1)-c1c(nc3ccccc3c1N)CC2` [11-Amino-4,5-dihydro-2H-pyrazolo[3,4-a]acridine-2-acetonitrile]: 47%.

`CC(=O)Oc1ccccc1C(=O)O` [Aspirin, reference compound]: the “PQW Activity, % Inhibition” value (33 mg/kg, s.c. (reference compound)) is reported as 50%.
